Experimental data taken from patent publication US7053070B2, “Pyrido[2,3-d]pyrimidine-2,7-diamine kinase inhibitors” (Warner-Lambert Company, priority 2000, dated 2006).

Key:
cdk2/cyclinE = cdk2/cyclinE (Homo sapiens, UniProt P24941); assay: Cyclin dependent kinase 2 assay (cdk2/cyclinE), 32P incorporation, filter plate; format: biochemical; details: retinoblastoma substrate, 12 mM ATP, 25° C., 15 minutes; read-out: Inhibition of Cdks: IC50 Cdk2/E
Method: (§1) Cyclin Dependent Kinase 1 and 2 Assays (cdk1/cyclinB, cdk2/cyclinA, cdk2/cyclinE)
(§2) Enzyme assays for IC50 determinations and kinetic evaluation are performed in a 96-well filter plate (Millipore MADVN6550) in a total volume of 0.1 mL of 20 mM TRIS (tris[hydroxymethyl]aminomethane), at pH 7.4, 50 mM NaCl, 1 mM dithiothreitol, 10 mM MgCl2, […] containing 0.25 μCi of [^32P]ATP, 20 ng of enzyme (either cdk1/B, cdk2/A, or cdk2E), 1 μg retinoblastoma and appropriate dilutions of the particular invention compound. All components except the ATP are added to the wells, and the plate is placed on a plate mixer for 2 minutes. The reaction is begun by addition of [^32P]ATP, and the plate is incubated at 25° C. for 15 minutes. The reaction is terminated by addition of 0.1 mL of 20% TCA. The plate is kept at 4° C. for at least 1 hour to allow the substrate to precipitate. The wells are then washed 5 times with 0.2 mL of 10% TCA and ^32P incorporation determined with a beta plate counter (Wallac Inc., Gaithersburg, Md.).

cdk1/cyclinB = cdk1/cyclinB (Homo sapiens, UniProt P06493); assay: Cyclin dependent kinase 1 assay (cdk1/cyclinB), 32P incorporation, filter plate; format: biochemical; details: retinoblastoma substrate, 12 mM ATP, 25° C., 15 minutes; read-out: Inhibition of Cdks: IC50 Cdk1/B
cdk1/cyclinB, sequence (P06493 whole entry, species assumed): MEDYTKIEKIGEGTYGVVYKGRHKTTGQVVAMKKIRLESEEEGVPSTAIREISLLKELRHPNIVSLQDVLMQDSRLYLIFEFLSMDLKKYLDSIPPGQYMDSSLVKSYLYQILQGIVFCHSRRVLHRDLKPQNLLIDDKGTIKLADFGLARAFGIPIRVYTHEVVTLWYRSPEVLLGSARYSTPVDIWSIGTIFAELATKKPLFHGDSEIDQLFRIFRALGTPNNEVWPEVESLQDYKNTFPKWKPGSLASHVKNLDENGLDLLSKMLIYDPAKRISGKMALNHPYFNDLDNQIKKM
cdk1/cyclinB, sequence (P14635 whole entry partner, species assumed): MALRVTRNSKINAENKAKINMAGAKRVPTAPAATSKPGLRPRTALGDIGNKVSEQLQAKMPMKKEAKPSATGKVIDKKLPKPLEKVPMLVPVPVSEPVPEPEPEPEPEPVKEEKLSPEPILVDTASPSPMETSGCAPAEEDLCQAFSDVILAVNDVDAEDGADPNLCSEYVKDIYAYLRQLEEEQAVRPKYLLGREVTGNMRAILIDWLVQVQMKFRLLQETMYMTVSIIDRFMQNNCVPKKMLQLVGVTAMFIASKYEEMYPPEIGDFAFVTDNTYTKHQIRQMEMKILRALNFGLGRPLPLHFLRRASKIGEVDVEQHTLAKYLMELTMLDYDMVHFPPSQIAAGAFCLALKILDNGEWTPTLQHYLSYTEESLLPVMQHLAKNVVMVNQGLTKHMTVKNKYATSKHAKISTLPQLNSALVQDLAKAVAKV
Method: as §1, §2

cdk4/cyclinD = cdk4/cyclinD (Homo sapiens, UniProt P11802); assay: Cyclin Dependent Kinase 4 (cdk-4) Assay, 32P incorporation, filter plate; format: biochemical; details: retinoblastoma substrate, 25 μM ATP, 25° C., 15 minutes; read-out: Inhibition of Cdks: IC50 Cdk4D
cdk4/cyclinD, sequence (P11802 whole entry, species assumed): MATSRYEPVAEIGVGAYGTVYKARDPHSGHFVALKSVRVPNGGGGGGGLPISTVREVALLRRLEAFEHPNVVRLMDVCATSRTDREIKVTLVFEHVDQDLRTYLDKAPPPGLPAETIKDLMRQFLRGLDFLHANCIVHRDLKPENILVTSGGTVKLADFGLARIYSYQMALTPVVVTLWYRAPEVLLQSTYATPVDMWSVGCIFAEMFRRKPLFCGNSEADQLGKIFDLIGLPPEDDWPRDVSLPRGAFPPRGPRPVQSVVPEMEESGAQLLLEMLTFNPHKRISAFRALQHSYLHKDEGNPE
cdk4/cyclinD, sequence (P24385 whole entry partner, species assumed): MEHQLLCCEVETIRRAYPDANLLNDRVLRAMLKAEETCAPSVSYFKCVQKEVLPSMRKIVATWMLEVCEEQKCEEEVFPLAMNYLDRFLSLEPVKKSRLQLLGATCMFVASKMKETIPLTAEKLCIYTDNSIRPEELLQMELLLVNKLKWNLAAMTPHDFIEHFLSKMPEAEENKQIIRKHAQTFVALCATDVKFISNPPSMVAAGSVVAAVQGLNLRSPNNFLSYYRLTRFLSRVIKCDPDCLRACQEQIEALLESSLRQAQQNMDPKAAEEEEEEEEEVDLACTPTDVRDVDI
Method: Cyclin Dependent Kinase 4 (cdk-4) Assay
Enzyme assays for IC50 determinations and kinetic evaluation are performed in 96-well filter plates (Millipore MADVN6550). The total volume is 0.1 mL containing a final concentration of 20 mM TRIS (tris[hydroxymethyl]aminomethane), at pH 7.4, 50 mM NaCl, 1 mM dithiothreitol, 10 mM MgCl2, 25 μM ATP containing 0.25 μCi of [^32P]ATP, 20 ng of cdk4, 1 μg of retinoblastoma, and appropriate dilutions of a compound of the present invention. All components except the ATP are added to the wells, and the plate is placed on a plate mixer for 2 minutes. The reaction is started by adding [^32P]ATP, and the plate is incubated at 25° C. for 15 minutes. The reaction is terminated by addition of 0.1 mL of 20% trichloroacetic acid (TCA). The plate is kept at 4° C. for at least 1 hour to allow the substrate to precipitate. The wells are then washed 5 times with 0.2 mL of 10% TCA and ^32P incorporation is determined with a beta plate counter (Wallac Inc., Gaithersburg, Md.).

cdk2/cyclinA = cdk2/cyclinA (Homo sapiens, UniProt P24941); assay: Cyclin dependent kinase 2 assay (cdk2/cyclinA), 32P incorporation, filter plate; format: biochemical; details: retinoblastoma substrate, 12 mM ATP, 25° C., 15 minutes; read-out: Inhibition of Cdks: IC50 Cdk2/A
Method: as §1, §2

Row | SMILES | IC50 (cdk2/cyclinE) [nM] | IC50 (cdk1/cyclinB) [nM] | melting point | IC50 (cdk4/cyclinD) [nM] | IC50 (cdk2/cyclinA) [nM]
1 | Cc1cc(NC(=O)NC(C)(C)C)nc2nc(Nc3ccc(N4CCNCC4)cc3)ncc12 [Compound 4, 1-tert-Butyl-3-[5-methyl-2-(4-piperazin-1-yl-phenylamino)-pyrido[2,3-d]pyrimidin-7-yl]-urea] | > 5000 | > 5000 | 230 to 232 °C (dec.) | 1500 | > 5000
2 | CC(=O)N1CCN(c2ccc(Nc3ncc4ccc(NC(=O)NC(C)(C)C)nc4n3)cc2)CC1 [Compound 5, 1-{2-[4-(4-Acetyl-piperazin-1-yl)-phenylamino]-pyrido[2,3-d]pyrimidin-7-yl}-3-tert-butyl-urea] | 130 | 463 | 206 to 208 °C (dec.) | 37 | 130
3 | Cc1cc(NC(=O)NC2CCCCC2)nc2nc(Nc3ccc(N4CCNCC4)cc3)ncc12 [Compound 12, 1-Cyclohexyl-3-[5-methyl-2-(4-piperazin-1-yl-phenylamino)-pyrido[2,3-d]pyrimidin-7-yl]-urea] | > 5000 | > 5000 | 238 °C (dec.) | 2100 | > 5000
4 | CCNC(=O)Nc1cc(C)c2cnc(Nc3ccc(N4CCNCC4)cc3)nc2n1 [Compound 28, 1-Ethyl-3-[5-methyl-2-(4-piperazin-1-yl-phenylamino)-pyrido[2,3-d]pyrimidin-7-yl]-urea] | > 5000 | > 5000 | 220 to 222 °C | > 5000 | > 5000
5 | C[C@@H]1CN(c2ccc(Nc3ncc4ccc(NC(=O)NC(C)(C)C)nc4n3)cc2)C[C@H](C)N1 [Compound 49, 1-tert-Butyl-3-{2-[4-(cis-3,5-dimethyl-piperazin-1-yl)-phenylamino]-pyrido[2,3-d]pyrimidin-7-yl}-urea] | 475 | 911 | 245 °C (dec.) | 50 | 528
6 | C[C@@H]1CN(c2ccc(Nc3ncc4ccc(NC(=O)NC5CCCCC5)nc4n3)cc2)C[C@H](C)N1 [Compound 50, 1-Cyclohexyl-3-{2-[4-(cis-3,5-dimethyl-piperazin-1-yl)-phenylamino]-pyrido[2,3-d]pyrimidin-7-yl}-urea] | 35 | 69 | 228 °C (dec.) | 7 | 22
7 | C[C@@H]1CN(c2ccc(Nc3ncc4cc(F)c(NC(=O)NC5CCCCC5)nc4n3)cc2)C[C@H](C)N1 [Compound 52, 1-Cyclohexyl-3-{2-[4-(cis-3,5-dimethyl-piperazin-1-yl)-phenylamino]-6-fluoro-pyrido[2,3-d]pyrimidin-7-yl}-urea] | 126 | 472 | 227 to 229 °C | 27 | 213
8 | Cc1cc(NC(=O)NC2CCCC2)nc2nc(Nc3ccc(N4CCNCC4)cc3)ncc12 [Compound 53, 1-Cyclopentyl-3-[5-methyl-2-(4-piperazin-1-yl-phenylamino)-pyrido[2,3-d]pyrimidin-7-yl]-urea] | > 5000 | > 5000 | 234 °C (dec.) | > 5000 | > 5000
9 | CNC(=O)Nc1cc(C)c2cnc(Nc3ccc(N4CCNCC4)cc3)nc2n1 [Compound 64, 1-Methyl-3-[5-methyl-2-(4-piperazin-1-yl-phenylamino)-pyrido[2,3-d]pyrimidin-7-yl]-urea] | > 5000 | > 5000 | 204 to 206 °C (dec.) | > 5000 | > 5000
10 | CN(C(=O)Nc1ccc2cnc(Nc3ccc(N4CCNCC4)cc3)nc2n1)C1CCCCC1 [Compound 65, 1-Cyclohexyl-1-methyl-3-[2-(4-piperazin-1-yl-phenylamino)-pyrido[2,3-d]pyrimidin-7-yl]-urea] | > 5000 | > 5000 | 177 °C (dec.) | > 5000 | > 5000
11 | Cc1cc(NS(=O)(=O)N(C)C)nc2nc(Nc3ccc(N4CCNCC4)cc3)ncc12 [Compound 71] | > 5000 | > 5000 | 228 to 230 °C (dec.) | > 5000 | > 5000
12 | CC(C)(C)NC(=O)Nc1ccc2cnc(Nc3ccc(N4CCN(C(=O)OC(C)(C)C)CC4)cc3)nc2n1 [Compound 79, 4-{4-[7-(3-tert-Butyl-ureido)-pyrido[2,3-d]pyrimidin-2-ylamino]-phenyl}-piperazine-1-carboxylic acid tert-butyl ester] | > 5000 | > 5000 | 225 °C (dec.) | > 5000 | 1070
13 | O=C(NCCCO)Nc1ccc2cnc(Nc3ccc(N4CCNCC4)cc3)nc2n1 [Compound 81, 1-(3-Hydroxy-propyl)-3-[2-(4-piperazin-1-yl-phenylamino)-pyrido[2,3-d]pyrimidin-7-yl]-urea] | 3250 | 2610 | 183 °C (dec.) | 500 | 1560
14 | CC(C)C[C@@H](CO)NC(=O)Nc1ccc2cnc(Nc3ccc(N4CCNCC4)cc3)nc2n1 [Compound 83, 1-((S)-1-Hydroxymethyl-3-methyl-butyl)-3-[2-(4-piperazin-1-yl-phenylamino)-pyrido[2,3-d]pyrimidin-7-yl]-urea] | 315 | 399 | 185 °C (dec.) | 55 | 305
15 | CN1CCN(C(=O)Nc2ccc3cnc(Nc4ccc(N5CCNCC5)cc4)nc3n2)CC1 [Compound 84, 4-Methyl-piperazine-1-carboxylic acid [2-(4-piperazin-1-yl-phenylamino)-pyrido[2,3-d]pyrimidin-7-yl]-amide] | > 5000 | > 5000 | 200 °C (dec.) | > 5000 | > 5000
16 | O=C(Nc1ccc2cnc(Nc3ccc(N4CCNCC4)cc3)nc2n1)N1CCOCC1 [Compound 85, Morpholine-4-carboxylic acid [2-(4-piperazin-1-yl-phenylamino)-pyrido[2,3-d]pyrimidin-7-yl]-amide] | > 5000 | > 5000 | 190 °C (dec.) | > 5000 | > 5000
17 | CCCN(CCC)C(=O)Nc1ccc2cnc(Nc3ccc(N4CCNCC4)cc3)nc2n1 [Compound 86, 3-[2-(4-Piperazin-1-yl-phenylamino)-pyrido[2,3-d]pyrimidin-7-yl]-1,1-dipropyl urea] | > 5000 | > 5000 | 190 °C (dec.) | > 5000 | > 5000
18 | O=C(Nc1ccc2cnc(Nc3ccc(N4CCNCC4)cc3)nc2n1)N1CCNCC1 [Compound 87, Piperazine-1-carboxylic acid [2-(4-piperazin-1-yl-phenylamino)-pyrido[2,3-d]pyrimidin-7-yl]-amide] | > 5000 | > 5000 | 220 °C (dec.) | > 5000 | > 5000
19 | CC(C)[C@H](CO)NC(=O)Nc1ccc2cnc(Nc3ccc(N4CCNCC4)cc3)nc2n1 [Compound 88, 1-((R)-1-Hydroxymethyl-2-methyl-propyl)-3-[2-(4-piperazin-1-yl-phenylamino)-pyrido[2,3-d]pyrimidin-7-yl]-urea] | 55 | 418 | 200 °C (dec.) | 25 | 43
20 | O=C(Nc1ccc2cnc(Nc3ccc(N4CCNCC4)cc3)nc2n1)N(CCO)CCO [Compound 89, 1,1-Bis-(2-hydroxy-ethyl)-3-[2-(4-piperazin-1-yl-phenylamino)-pyrido[2,3-d]pyrimidin-7-yl]-urea] | > 5000 | > 5000 | 185 °C (dec.) | > 5000 | > 5000
21 | O=C(NCCCN1CCOCC1)Nc1ccc2cnc(Nc3ccc(F)cc3)nc2n1 [Compound 96, 1-[2-(4-Fluoro-phenylamino)-pyrido[2,3-d]pyrimidin-7-yl]-3-(3-morpholin-4-yl-propyl)-urea] | 1550 | 6360 | 253 to 256 °C | > 5000 | 1110
